# Tests used:
# PTRGER4 (EP4) = PTRGER4 (EP4) (Homo sapiens (Human), UniProt P35408); assay: hEP4 b-arrestin assay (PathHunter HEK 293 PTGER4 b-arrestin cells); assay type: cell-based
# Method in brief: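 Antagonist mode: compound is given 15 min at 37 °C, then 20 nM (final) PGE2 for 120 min, in HEK293 cells stably expressing EP4 fused to ProLink and β-arrestin 2 fused to EA. Recruitment read as β-gal luminescence after 1 h reagent at room temperature, as percent of DMSO control.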
# PTGER2 (EP2) = PTGER2 (EP2) (Homo sapiens (Human), UniProt P43116); assay: hEP2 b-arrestin assay (PathHunter HEK 293 PTGER2 b-arrestin cells); assay type: cell-based
# Method in brief: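 Readout is β-galactosidase complementation luminescence, expressed as percent of DMSO control (duplicates). PathHunter HEK293 EP2/β-arrestin 2 cells, grown 24 h, received compound for 15 min at 37 °C before a 120 min challenge with PGE2 at 5 μM final, followed by 1 h detection at room temperature.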
# [1] = hEP4 b-arrestin assay (values without asterisk)
# [2] = hEP2 b-arrestin assay (values without asterisk)
# [3] = antagonistic activity on hEP4, mean where measured multiple times
# [4] = antagonistic activity on hEP2, mean where measured multiple times
# Sequence of PTGER2 (EP2) (P43116 whole entry): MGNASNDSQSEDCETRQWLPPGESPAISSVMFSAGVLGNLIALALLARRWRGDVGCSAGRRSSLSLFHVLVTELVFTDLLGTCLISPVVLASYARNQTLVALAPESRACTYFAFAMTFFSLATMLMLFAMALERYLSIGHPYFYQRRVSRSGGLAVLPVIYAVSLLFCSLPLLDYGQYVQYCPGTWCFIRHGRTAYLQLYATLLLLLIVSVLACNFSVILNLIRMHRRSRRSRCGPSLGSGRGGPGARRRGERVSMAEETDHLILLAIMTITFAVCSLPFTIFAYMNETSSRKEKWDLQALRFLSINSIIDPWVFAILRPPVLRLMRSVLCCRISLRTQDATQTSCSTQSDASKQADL
# Sequence of PTRGER4 (EP4) (P35408 whole entry, looked up, the tested form may be a part): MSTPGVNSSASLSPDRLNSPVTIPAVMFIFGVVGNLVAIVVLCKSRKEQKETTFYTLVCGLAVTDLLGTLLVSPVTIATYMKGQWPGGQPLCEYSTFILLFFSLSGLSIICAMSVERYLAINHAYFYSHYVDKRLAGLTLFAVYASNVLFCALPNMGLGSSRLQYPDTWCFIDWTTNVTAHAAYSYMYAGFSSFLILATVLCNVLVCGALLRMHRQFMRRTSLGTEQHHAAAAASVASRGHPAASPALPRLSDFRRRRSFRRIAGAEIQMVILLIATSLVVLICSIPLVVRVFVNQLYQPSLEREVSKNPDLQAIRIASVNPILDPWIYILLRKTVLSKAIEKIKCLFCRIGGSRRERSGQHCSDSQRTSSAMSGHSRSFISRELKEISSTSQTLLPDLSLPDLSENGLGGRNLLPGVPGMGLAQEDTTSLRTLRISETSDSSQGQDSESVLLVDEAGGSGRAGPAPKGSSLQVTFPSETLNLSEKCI
SMILES,IC50 (PTRGER4 (EP4); [1]) [nM],IC50 (PTGER2 (EP2); [2]) [nM],IC50 (PTRGER4 (EP4); [3]) [nM],IC50 (PTGER2 (EP2); [4]) [nM]
"CCOc1cc(-c2cc(NCCn3c(C)cc4c(OC)ccc(F)c43)ncn2)ccc1-c1noc(=O)[nH]1 [Example 830, 3-(2-Ethoxy-4-{6-[2-(7-fluoro-4-methoxy-2-methyl-indol-1-yl)-ethylamino]-pyrimidin-4-yl}-phenyl)-[1,2,4]oxadiazol-5(4H)-one]",12,3,,
"COc1cccc2c1cc(C)n2CCNc1cc(-c2ccc(CO)c(C)c2)ncn1 [compound 13, (4-{6-[2-(4-Methoxy-2-methyl-indol-1-yl)-ethylamino]-pyrimidin-4-yl}-2-methyl-phenyl)-methanol]",,,428,14
"COc1ccc(F)c2c1cc(C)n2CCNc1cc(-c2ccc(C(N)=O)cc2)ncn1 [compound 42, 4-{6-[2-(7-Fluoro-4-methoxy-2-methyl-indol-1-yl)-ethylamino]-pyrimidin-4-yl}-benzamide]",,,494,21
"CNc1cc(-c2cc(NCCn3c(C)cc4c(C)c(F)cc(F)c43)ncn2)ccc1C(=O)O [Example 1012, 4-{6-[2-(5,7-Difluoro-2,4-dimethyl-indol-1-yl)-ethylamino]-pyrimidin-4-yl}-2-methylamino-benzoic acid]",37,5,,
"COc1cc(-c2cc(NCCn3c(C)cc4c(C)ccc(F)c43)ncn2)ccc1CO [compound 30, (4-{6-[2-(7-Fluoro-2,4-dimethyl-indol-1-yl)-ethylamino]-pyrimidin-4-yl}-2-methoxy-phenyl)-methanol]",,,243,34
CCOc1cc(-c2cc(NCCn3c(C)cc4c(F)cc(F)c(F)c43)ncn2)sc1C(=O)O [compound 274],,,43,1
"CCOc1cc(-c2cc(NCCn3c(C)cc4c(OC)ccc(F)c43)ncn2)ccc1CO [compound 159, (2-Ethoxy-4-{6-[2-(7-fluoro-4-methoxy-2-methyl-indol-1-yl)-ethylamino]-pyrimidin-4-yl}-phenyl)-methanol]",,,75,4
CCNc1cc(-c2cc(NCCn3c(C)cc4cccc(OC)c43)ncn2)ccc1C(=O)O [compound 247],,,681,32
CCc1cc(-c2cc(NCCn3c(C)cc4c(OC)ccc(F)c43)ncn2)sc1C(=O)O [compound 230],,,13,5
"COc1cc(C(=O)O)cc(-c2cc(NCCn3c(C#N)cc4c(OC)ccc(F)c43)ncn2)c1 [Example 1005, 3-{6-[2-(2-Cyano-7-fluoro-4-methoxy-indol-1-yl)-ethylamino]-pyrimidin-4-yl}-5-methoxy-benzoic acid]",55,18,,
"CCOc1cc(-c2cc(NCCn3c(C)cc4c(OC)ccc(F)c43)ncn2)sc1C(=O)O [Example 258, 3-Ethoxy-5-{6-[2-(7-fluoro-4-methoxy-2-methyl-indol-1-yl)-ethylamino]-pyrimidin-4-yl}-thiophene-2-carboxylic acid]",,,10,1
CCOc1cc(-c2cc(NCCn3c(C)cc4c(C)cc(Cl)cc43)ncn2)sc1C(=O)O [compound 224],,,20,4
Cc1ccc2c(c1)cc(C)n2CCNc1cc(-c2ccc(C(=O)O)c(CC(C)C)c2)ncn1 [compound 262],,,925,35
"COc1cccc2c1cc(C#N)n2CCNc1cc(-c2cc(C(F)(F)F)c(C(=O)O)s2)ncn1 [Example 910, 5-{6-[2-(2-Cyano-4-methoxy-indol-1-yl)-ethylamino]-pyrimidin-4-yl}-3-trifluoromethyl-thiophene-2-carboxylic acid]",10,23,,
CCOc1cc(-c2cc(NCCn3c(C)cc4c(C)cc(F)cc43)ncn2)sc1C(=O)O [compound 229],,,26,2
Cc1ccc(F)c2c1cc(C)n2CCNc1cc(-c2ccc(-c3ncc[nH]3)cc2)ncn1 [compound 71],,,758,86
"COc1cc(F)cc2c1cc(C)n2CCNc1cc(-c2ccc(C(=O)O)c(OCC(F)(F)F)c2)ncn1 [Example 845, 4-{6-[2-(6-Fluoro-4-methoxy-2-methyl-indol-1-yl)-ethylamino]-pyrimidin-4-yl}-2-(2,2,2-trifluoro-ethoxy)-benzoic acid]",215,7,,
"Cc1cc2cccc(F)c2n1CCNc1cc(-c2ccc(C(=O)O)c(CC(C)C)c2)ncn1 [compound 148, 4-{6-[2-(7-Fluoro-2-methyl-indol-1-yl)-ethylamino]-pyrimidin-4-yl}-2-isobutyl-benzoic acid]",,,943,7

SMILES,IC50 (PTRGER4 (EP4); [1]) [nM],IC50 (PTGER2 (EP2); [2]) [nM],IC50 (PTRGER4 (EP4); [3]) [nM],IC50 (PTGER2 (EP2); [4]) [nM]
"CCOc1cc(-c2cc(NCCn3c(C)cc4c(OC)ccc(F)c43)ncn2)sc1CCC(=O)O [Example 1015, 3-(3-Ethoxy-5-{6-[2-(7-fluoro-4-methoxy-2-methyl-indol-1-yl)-ethylamino]-pyrimidin-4-yl}-thiophen-2-yl)-propionic acid]",18,15,,
CCOc1cc(-c2cc(NCCn3c(C)cc4c(F)c(F)cc(F)c43)ncn2)sc1C(=O)O [compound 275],,,25,1
"CCOc1cc(-c2cc(NCCn3c(C#N)cc4c(OC)ccc(F)c43)ncn2)sc1C(=O)OCC(=O)O [Example 1043, 5-{6-[2-(2-Cyano-7-fluoro-4-methoxy-indol-1-yl)-ethylamino]-pyrimidin-4-yl}-3-ethoxy-thiophene-2-carboxylic acid carboxymethyl ester]",1,5,,
"Cc1ccc(F)c2c1cc(C)n2CCNc1cc(-c2ccc(-c3c[nH]cn3)cc2)ncn1 [compound 72, [2-(7-Fluoro-2,4-dimethyl-indol-1-yl)-ethyl]-{6-[4-(1H-imidazol-4-yl)-phenyl]-pyrimidin-4-yl}-amine]",,,28,45
"COc1ccc(F)c2c1cc(C)n2CCNc1cc(-c2ccc(-n3ccc(C)n3)cc2)ncn1 [compound 310, [2-(7-Fluoro-4-methoxy-2-methyl-indol-1-yl)-ethyl]-{6-[4-(3-methyl-pyrazol-1-yl)-phenyl]-pyrimidin-4-yl}-amine]",,,415,39
"CCOc1cc(-c2cc(NCCn3c(C#N)cc4c(OC)ccc(F)c43)ncn2)sc1C(=O)NS(=O)(=O)CC [Example 817, Ethanesulfonic acid (5-{6-[2-(2-cyano-7-fluoro-4-methoxy-indol-1-yl)-ethylamino]-pyrimidin-4-yl}-3-ethoxy-thiophene-2-carbonyl)-amide]",5,4,,
CCc1cc(-c2cc(NCCn3c(C)cc4c(OC)cccc43)ncn2)ccc1C(=O)O [compound 223],,,702,8
"COc1cccc2c1cc(C)n2CCNc1cc(-c2ccc(NC(N)=O)cc2)ncn1 [compound 39, (4-{6-[2-(4-Methoxy-2-methyl-indol-1-yl)-ethylamino]-pyrimidin-4-yl}-phenyl)-urea]",,,515,19
CCOc1cc(-c2cc(NCCn3c(C#N)cc4c(C)cc(F)cc43)ncn2)sc1C(=O)O [compound 249],,,9,3
CCOc1cc(-c2cc(NCCn3c(C)cc4c(Cl)cccc43)ncn2)sc1C(=O)O [compound 108],,,15,1
"CCCCOc1cc(-c2cc(NCCn3c(C#N)cc4c(OC)ccc(F)c43)ncn2)cc(F)c1C(=O)O [Example 905, 2-Butoxy-4-{6-[2-(2-cyano-7-fluoro-4-methoxy-indol-1-yl)-ethylamino]-pyrimidin-4-yl}-6-fluoro-benzoic acid]",5,22,,
"COc1ccc(F)c2c1cc(C#N)n2CCNc1cc(-c2ccc(-c3cn(C)c(C)n3)cc2)ncn1 [Example 824, 1-(2-{6-[4-(1,2-Dimethyl-1H-imidazol-4-yl)-phenyl]-pyrimidin-4-ylamino}-ethyl)-7-fluoro-4-methoxy-1H-indole-2-carbonitrile]",7,8,,
"CCOc1cc(-c2cc(NCCn3c(C)cc4c(OC)ccc(F)c43)ncn2)sc1-c1nnn[nH]1 [Example 1051, {6-[4-Ethoxy-5-(1H-tetrazol-5-yl)-thiophen-2-yl]-pyrimidin-4-yl}-[2-(7-fluoro-4-methoxy-2-methyl-indol-1-yl)-ethyl]-amine]",4,2,,
"COc1ccc(F)c2c1cc(C)n2CCNc1cc(-c2ccc(-c3cc(N)no3)cc2)ncn1 [compound 304, {6-[4-(3-Amino-isoxazol-5-yl)-phenyl]-pyrimidin-4-yl}-[2-(7-fluoro-4-methoxy-2-methyl-indol-1-yl)-ethyl]-amine]",,,12,2
"COc1ccc(F)c2c1cc(C#N)n2CCNc1cc(-c2ccc(-c3cnn[nH]3)cc2)ncn1 [Example 923, 7-Fluoro-4-methoxy-1-(2-{6-[4-(3H-[1,2,3]triazol-4-yl)-phenyl]-pyrimidin-4-ylamino}-ethyl)-1H-indole-2-carbonitrile]",42,20,,
"COc1ccc(F)c2c1cc(C#N)n2CCNc1cc(-c2ccc(C3(OC)COC3)s2)ncn1 [Example 860, 7-Fluoro-4-methoxy-1-(2-{6-[5-(3-methoxy-oxetan-3-yl)-thiophen-2-yl]-pyrimidin-4-ylamino}-ethyl)-1H-indole-2-carbonitrile]",121,421,,
"CCOc1cc(-c2cc(NCCn3c(C#N)cc4c(OC)ccc(F)c43)ncn2)ccc1OCCC(=O)O [Example 927, 3-(4-{6-[2-(2-Cyano-7-fluoro-4-methoxy-indol-1-yl)-ethylamino]-pyrimidin-4-yl}-2-ethoxy-phenoxy)-propionic acid]",3,31,,

# Source: US12011444B2, “N-substituted indole derivatives as PGE2 receptor modulators” (Idorsia Pharmaceuticals Ltd, priority 2015, dated 2024)
